Source: paper PMC8343220, “The selectivity of α‐adrenoceptor agonists for the human α1A, α1B, and α1D‐adrenoceptors” (Pharmacology Research & Perspectives, 2021)
Where two headings read alike, the source gives them in different places.

How the values were obtained:
[1] = biological target: T1, human α1A‐adrenoceptor (Homo sapiens, UniProt P35348); assay: Intracellular free calcium mobilization, CHO‐α1A cells; format: cell-based
T1 construct: expressed in transfected cells; host or cells: CHO-K1
T1 sequence (P35348 1-466): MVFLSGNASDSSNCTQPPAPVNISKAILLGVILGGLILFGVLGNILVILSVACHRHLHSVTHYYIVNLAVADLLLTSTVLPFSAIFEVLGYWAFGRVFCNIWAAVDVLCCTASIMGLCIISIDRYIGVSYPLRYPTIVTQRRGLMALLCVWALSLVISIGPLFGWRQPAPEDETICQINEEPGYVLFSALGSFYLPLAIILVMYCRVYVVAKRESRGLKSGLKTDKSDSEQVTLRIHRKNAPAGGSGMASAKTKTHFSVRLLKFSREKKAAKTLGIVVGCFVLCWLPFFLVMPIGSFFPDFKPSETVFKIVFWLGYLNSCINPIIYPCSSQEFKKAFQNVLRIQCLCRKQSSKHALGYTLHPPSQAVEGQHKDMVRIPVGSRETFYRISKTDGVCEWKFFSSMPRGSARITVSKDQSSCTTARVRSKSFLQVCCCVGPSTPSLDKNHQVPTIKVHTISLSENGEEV

[2] = biological target: T2, human α1B‐adrenoceptor (Homo sapiens, UniProt P35368); assay: Intracellular free calcium mobilization, CHO‐α1B cells; format: cell-based
T2 construct: expressed in transfected cells; host or cells: CHO-K1
T2 sequence (P35368 1-520): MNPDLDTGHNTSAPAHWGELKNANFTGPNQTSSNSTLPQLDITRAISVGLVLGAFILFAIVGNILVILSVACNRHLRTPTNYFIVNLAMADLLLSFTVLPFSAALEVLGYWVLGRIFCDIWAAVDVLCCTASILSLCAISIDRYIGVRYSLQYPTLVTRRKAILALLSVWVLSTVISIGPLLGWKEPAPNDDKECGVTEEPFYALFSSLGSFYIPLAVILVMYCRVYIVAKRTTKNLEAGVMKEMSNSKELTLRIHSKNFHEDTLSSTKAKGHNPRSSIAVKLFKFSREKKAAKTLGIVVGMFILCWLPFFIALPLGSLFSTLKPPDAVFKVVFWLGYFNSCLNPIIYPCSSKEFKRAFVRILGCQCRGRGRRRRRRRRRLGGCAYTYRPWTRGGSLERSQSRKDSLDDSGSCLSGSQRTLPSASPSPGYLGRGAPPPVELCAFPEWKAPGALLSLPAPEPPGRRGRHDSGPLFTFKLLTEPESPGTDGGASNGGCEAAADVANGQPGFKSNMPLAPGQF

[3] = biological target: T3, human α1D‐adrenoceptor (full length) (Homo sapiens, UniProt P25100); assay: Intracellular free calcium mobilization, CHO‐α1D cells; format: cell-based
T3 construct: human α1D‐adrenoceptor (full length) were used; expressed in transfected cells; host or cells: CHO-K1
T3 sequence (P25100 1-572): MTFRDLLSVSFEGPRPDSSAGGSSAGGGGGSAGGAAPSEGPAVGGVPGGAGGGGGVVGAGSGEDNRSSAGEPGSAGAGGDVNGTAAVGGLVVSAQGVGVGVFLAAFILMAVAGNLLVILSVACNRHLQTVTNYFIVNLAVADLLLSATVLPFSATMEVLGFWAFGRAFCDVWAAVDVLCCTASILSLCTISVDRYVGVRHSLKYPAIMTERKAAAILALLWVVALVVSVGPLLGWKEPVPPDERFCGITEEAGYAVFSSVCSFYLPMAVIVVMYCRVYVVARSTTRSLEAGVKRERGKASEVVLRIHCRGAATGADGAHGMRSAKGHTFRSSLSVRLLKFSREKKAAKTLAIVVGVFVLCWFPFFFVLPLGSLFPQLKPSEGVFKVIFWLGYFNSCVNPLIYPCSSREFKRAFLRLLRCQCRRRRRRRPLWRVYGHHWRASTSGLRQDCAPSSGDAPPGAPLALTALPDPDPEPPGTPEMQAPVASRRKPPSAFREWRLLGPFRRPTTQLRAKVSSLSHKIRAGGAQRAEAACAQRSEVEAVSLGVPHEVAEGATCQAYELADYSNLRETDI

[4] = system: parental CHO cell line without any transfected receptors; assay: Intracellular calcium mobilization, parent CHO cells without transfected receptors; format: cell-based, Chinese hamster
[5] = biological target: T1, human α1A‐adrenoceptor; assay: ERK1/2‐phosphorylation (Surefire Alphascreen), CHO‐α1A cells; format: cell-based
[6] = biological target: T2, human α1B‐adrenoceptor; assay: ERK1/2‐phosphorylation (Surefire Alphascreen), CHO‐α1B cells; format: cell-based
[7] = biological target: T3, human α1D‐adrenoceptor (full length); assay: ERK1/2‐phosphorylation (Surefire Alphascreen), CHO‐α1D cells; format: cell-based
[8] = system: parental CHO cell line without any transfected receptors; assay: ERK1/2‐phosphorylation, parent CHO cells without transfected receptors; format: cell-based, Chinese hamster
[9] = biological target: T1, human α1A‐adrenoceptor; assay: ^3H‐cAMP accumulation, CHO‐α1A cells; format: cell-based; details: for cAMP accumulation % forskolin: % of 10 µM forskolin response
[10] = system: parental CHO cell line without any transfected receptors; assay: ^3H‐cAMP accumulation, parent CHO cells without transfected receptors; format: cell-based, Chinese hamster
[11] = biological target: T1, human α1A‐adrenoceptor; assay: ^3H‐cAMP accumulation in the presence of 10 μM forskolin, CHO‐α1A cells; format: cell-based; details: for cAMP accumulation (in presence of forskolin) Fold increase: fold increase of the forskolin response
[12] = system: parental CHO cell line without any transfected receptors; assay: Forskolin‐stimulated cAMP accumulation, parent CHO cells without transfected receptors; format: cell-based, Chinese hamster
[13] = biological target: T1, human α1A‐adrenoceptor; assay: ^3H‐prazosin whole‐cell radioligand binding, CHO‐α1A cells
[14] = biological target: T2, human α1B‐adrenoceptor; assay: ^3H‐prazosin whole‐cell radioligand binding, CHO‐α1B cells
[15] = biological target: T3, human α1D‐adrenoceptor (full length); assay: ^3H‐prazosin whole‐cell radioligand binding, CHO‐α1D cells
[16] = biological target: T3, human α1D‐adrenoceptor (full length); assay: ^3H‐cAMP accumulation, CHO‐α1D cells; format: cell-based; details: cAMP accumulation without forskolin
[17] = biological target: T3, human α1D‐adrenoceptor (full length); assay: ^3H‐cAMP accumulation in the presence of 10 μM forskolin, CHO‐α1D cells; format: cell-based; details: CHO‐α1D cells; in presence of forskolin; log values given negative
[18] = Intracellular calcium release Log EC50
[19] = ERK1/2‐phosphorylation Log EC50

## CCC1(c2cnc[nH]2)Cc2ccccc2C1 [Atipamezole]
[1]
  Intracellular calcium release % ionomycin: 44.5 ± 2.6%
  Log efficacy ratio KD /EC50: 0.62
[1]; CHO‐α1A cells, given as log EC50 (negative), read-out: Intracellular calcium release Log EC50 (converted)
  EC50: 0.245 µM
[2]
  Intracellular calcium release % Ionomycin at 100 µM: 18.1 ± 4.8%
[3]
  Intracellular calcium release % ionomycin: No response
[3]; CHO‐α1D cells, log values given negative
  Intracellular calcium release Log EC50: No response
[4]
  Intracellular calcium release % ionomycin: No response
[5]
  ERK1/2‐phosphorylation % PDBu: 87.1 ± 5.0%
[5]; CHO‐α1A cells, 2–4 min, ^a bi‐phasic: initial stimulatory part, ^b also active in parent CHO cells, read-out: ERK1/2‐phosphorylation Log EC50 (converted)
  EC50: 0.1 µM
[6]
  ERK1/2‐phosphorylation % PDBu: No response
[6]; CHO‐α1B cells, for bi‐phasic responses the initial stimulatory part
  ERK1/2‐phosphorylation Log EC50: No response
[7]
  ERK1/2‐phosphorylation % PDBu at 10 µM: 5.3 ± 4.6%
[8]
  ERK1/2-phosphorylation % PDBu at 10μM: 3.1 ± 1.9%
[9]; CHO‐α1A cells, 5 h, read-out: cAMP accumulation Log EC50 (converted)
  EC50: 1.17 µM
[9]; CHO‐α1A cells
  cAMP accumulation % forskolin: 14.5 ± 2.6%
[10]
  cAMP accumulation % forskolin: No response
[11]; CHO‐α1A cells, 10 μM forskolin, read-out: cAMP accumulation (in presence of forskolin) Log EC50 (converted)
  EC50: 0.479 µM
[11]; CHO‐α1A cells
  cAMP accumulation (in presence of forskolin) Fold increase: 2.00 ± 0.10 fold
[12]
  cAMP accumulation (in presence of forskolin) % forskolin-stim cAMP: No response
  cAMP accumulation (in presence of forskolin) Log EC50: No response

## CN[C@@H](C)[C@H](O)c1ccccc1 [Ephedrine]
[13]
  Affinity selectivity ratio α1A vs α1B: >11.7 fold
  Affinity selectivity ratio α1A vs α1D: 3.2 fold
  Kd: 85.1 µM
[14]
  IC50: > 1000 µM
[15]
  Affinity selectivity ratio α1B vs α1D: >3.7 fold
  Kd: 269 µM
[1]
  EC50: 3.16 µM
  Intracellular calcium release % ionomycin: 43.1 ± 1.6%
  Log efficacy ratio KD /EC50: 1.43
[3]
  Intracellular calcium release % Ionomycin at 100 µM: 2.6 ± 1.3%
[4]; Cricetulus griseus, CHO, read-out: Intracellular calcium release % ionomycin
  Emax: 5.3 ± 1.6%
[5]
  EC50: 7.59 µM
  ERK1/2‐phosphorylation % PDBu: 72.7 ± 6.5%
[7]
  ERK1/2‐phosphorylation % PDBu at 100 µM: 3.3 ± 2.1%
[8]
  ERK1/2-phosphorylation % PDBu: No response
  ERK1/2-phosphorylation Log EC50: No response
[9]
  EC50: 117 µM
[9]; CHO‐α1A cells
  cAMP accumulation % forskolin: 7.8 ± 1.3%
[10]
  cAMP accumulation % forskolin: No response
[11]
  EC50: 70.8 µM
[11]; CHO‐α1A cells
  cAMP accumulation (in presence of forskolin) Fold increase: 1.70 ± 0.10 fold
[12]
  cAMP accumulation (in presence of forskolin) % forskolin-stim cAMP: No response
  cAMP accumulation (in presence of forskolin) Log EC50: No response

## CC(Cc1ccc(O)cc1)NCC(O)c1cc(O)cc(O)c1 (stereo not drawn) [Fenoterol]
[13]; Log KD α1A, ^3H‐prazosin whole cell binding
  Kd: 5.13 µM
[14]; Log KD α1B, ^3H‐prazosin whole cell binding
  Kd: 123 µM
[14]; Log KD, ^3H‐prazosin binding
  Kd: 123 µM
[15]; 3H‐prazosin binding Log KD
  Kd: 44.7 µM
[15]; Log KD α1D, ^3H‐prazosin whole cell binding
  Kd: 44.7 µM
[1]; [18]
  EC50: 0.309 µM
[2]; [18]
  EC50: 0.537 µM
[4]
  Intracellular calcium release % ionomycin: No response
[5]; [19]
  EC50: 2.04 µM
[6]; [19]
  EC50: 2.75 µM
[7]
  EC50: 3.98 µM
[8]
  ERK1/2-phosphorylation % PDBu: No response
[9]; CHO‐α1A cells, 5 h
  cAMP accumulation Log EC50: No response
[16]
  cAMP Log EC50: No response
[10]
  cAMP accumulation % forskolin: No response
[11]; CHO‐α1A cells, 10 μM forskolin
  cAMP accumulation (in presence of forskolin) Log EC50: No response
[17]
  cAMP (in presence of forskolin) Log EC50: No response
[12]
  cAMP accumulation (in presence of forskolin) % forskolin-stim cAMP: No response

## CCN(CC)C(=O)N[C@H]1C=C2c3cccc4[nH]cc(c34)C[C@H]2N(C)C1 [Lisuride]
[4]
  Intracellular calcium release % ionomycin: No response
[8]
  ERK1/2‐phosphorylation response in parent CHO cells: stimulated ERK1/2‐phosphorylation responses
[8]; Cricetulus griseus, CHO, read-out: ERK1/2-phosphorylation % PDBu
  Emax: 41 ± 6.4%
[10]
  cAMP accumulation % forskolin: No response
[12]
  cAMP accumulation (in presence of forskolin) % forskolin-stim cAMP at 10μM: 85.2 ± 5.0%

## CC(N)C(O)c1ccc(O)c(O)c1 (stereo not drawn) [α-methylnorepinephrine]
[4]
  Intracellular calcium release % ionomycin: No response
[8]
  ERK1/2-phosphorylation % PDBu: No response
  ERK1/2-phosphorylation Log EC50: No response
[10]
  cAMP accumulation % forskolin: No response
[12]
  cAMP accumulation (in presence of forskolin) % forskolin-stim cAMP: No response
  cAMP accumulation (in presence of forskolin) Log EC50: No response
